Data taken from publication PMC11822212, “High-throughput screening identifies Aurora kinase B as a critical therapeutic target for Merkel cell carcinoma” (Nature Communications, 2025).
Several values for one entry are separate records, joined by “and”; a condition that tells them apart may be missing. Identical values can stand only once. Counter-ions that a name gives are not always drawn. Like-named read-outs stand apart in the source and are kept apart here.

How the values were obtained:
Test in all cases: qHTS cell viability (CellTiter-Glo, 72 h; primary and follow-up small molecule screen)
Assay type in all cases: cell-based, human
MCC13 cells (VN-MCC) = tested on: MCC13 cells (VN-MCC)
MCC26 cells (VN-MCC) = tested on: MCC26 cells (VN-MCC)
UISO cells (VN-MCC) = tested on: UISO cells (VN-MCC)
WAGA cells (VP-MCC) = tested on: WAGA cells (VP-MCC)
MKL-1 cells (VP-MCC) = tested on: MKL-1 cells (VP-MCC)
MKL-2 cells (VP-MCC) = tested on: MKL-2 cells (VP-MCC)
[1] = follow-up screen, MCC13, replicate 1
[2] = follow-up screen, MCC13, replicate 2
[3] = follow-up screen, MCC13, replicate 3
[4] = follow-up screen, MCC26, replicate 1
[5] = follow-up screen, MCC26, replicate 2
[6] = follow-up screen, MCC26, replicate 3
[7] = follow-up screen, UISO, replicate 1
[8] = follow-up screen, UISO, replicate 2
[9] = follow-up screen, UISO, replicate 3
[10] = follow-up screen, WAGA, replicate 1
[11] = follow-up screen, WAGA, replicate 2
[12] = follow-up screen, WAGA, replicate 3
[13] = follow-up screen, MKL-1, replicate 1
[14] = follow-up screen, MKL-1, replicate 2
[15] = follow-up screen, MKL-1, replicate 3
[16] = follow-up screen, MKL-2, replicate 1
[17] = follow-up screen, MKL-2, replicate 2
[18] = follow-up screen, MKL-2, replicate 3

Structure (SMILES) | Area under the dose-response curve (AUC) MCC13 Replicate 1 (MCC13 cells (VN-MCC)) | Area under the dose-response curve (AUC) MCC13 Replicate 2 (MCC13 cells (VN-MCC)) | Area under the dose-response curve (AUC) MCC13 Replicate 3 (MCC13 cells (VN-MCC)) | Area under the dose-response curve (AUC) MCC26 Replicate 1 (MCC26 cells (VN-MCC)) | Area under the dose-response curve (AUC) MCC26 Replicate 2 (MCC26 cells (VN-MCC)) | Area under the dose-response curve (AUC) MCC26 Replicate 3 (MCC26 cells (VN-MCC)) | Area under the dose-response curve (AUC) UISO Replicate 1 (UISO cells (VN-MCC)) | Area under the dose-response curve (AUC) UISO Replicate 2 (UISO cells (VN-MCC)) | Area under the dose-response curve (AUC) UISO Replicate 3 (UISO cells (VN-MCC)) | Area under the dose-response curve (AUC) WAGA Replicate 1 (WAGA cells (VP-MCC)) | Area under the dose-response curve (AUC) WAGA Replicate 2 (WAGA cells (VP-MCC)) | Area under the dose-response curve (AUC) WAGA Replicate 3 (WAGA cells (VP-MCC)) | Area under the dose-response curve (AUC) MKL-1 Replicate 1 (MKL-1 cells (VP-MCC)) | Area under the dose-response curve (AUC) MKL-1 Replicate 2 (MKL-1 cells (VP-MCC)) | Area under the dose-response curve (AUC) MKL-1 Replicate 3 (MKL-1 cells (VP-MCC)) | Area under the dose-response curve (AUC) MKL-2 Replicate 1 (MKL-2 cells (VP-MCC)) | Area under the dose-response curve (AUC) MKL-2 Replicate 2 (MKL-2 cells (VP-MCC)) | Area under the dose-response curve (AUC) MKL-2 Replicate 3 (MKL-2 cells (VP-MCC)) | Area under the dose-response curve (AUC) MCC13 Replicate 1 (MCC13 cells (VN-MCC); [1]) | Area under the dose-response curve (AUC) MCC13 Replicate 2 (MCC13 cells (VN-MCC); [2]) | other results
O=C1c2c(O)ccc(O)c2C(=O)c2c(NCCNCCO)ccc(NCCNCCO)c21 [Mitoxantrone dihydrochloride] | 292.1 | 295.3 | 315.4 | 322.6 | 335.6 | 279.8 | 188.5 | 205.7 | 190.2 | 153.5 | 170.4 | 183.6 | 180.6 | 178.5 | 172.4 | 203.7 | 186.2 | 247.3 | – | – | –
COc1ccc(OC)c(-c2nnc3ccc(-c4ccc(OC)c(O[C@@H]5CCOC5)c4)nn23)c1 [NCGC00168459-01] | – | – | – | – | – | – | – | – | – | – | – | – | – | – | – | – | – | – | 471.2 | 476.6 | Area under the dose-response curve (AUC) MCC13 Replicate 3 (MCC13 cells (VN-MCC); [3]): 471.3; Area under the dose-response curve (AUC) MCC26 Replicate 1 (MCC26 cells (VN-MCC); [4]): 450.8; Area under the dose-response curve (AUC) MCC26 Replicate 2 (MCC26 cells (VN-MCC); [5]): 439.4; Area under the dose-response curve (AUC) MCC26 Replicate 3 (MCC26 cells (VN-MCC); [6]): 478.6; Area under the dose-response curve (AUC) UISO Replicate 1 (UISO cells (VN-MCC); [7]): 435.8; Area under the dose-response curve (AUC) UISO Replicate 2 (UISO cells (VN-MCC); [8]): 424.6; Area under the dose-response curve (AUC) UISO Replicate 3 (UISO cells (VN-MCC); [9]): 430.2; Area under the dose-response curve (AUC) WAGA Replicate 1 (WAGA cells (VP-MCC); [10]): 480.8; Area under the dose-response curve (AUC) WAGA Replicate 2 (WAGA cells (VP-MCC); [11]): 429.3; Area under the dose-response curve (AUC) WAGA Replicate 3 (WAGA cells (VP-MCC); [12]): 424.9; Area under the dose-response curve (AUC) MKL-1 Replicate 1 (MKL-1 cells (VP-MCC); [13]): 460.8; Area under the dose-response curve (AUC) MKL-1 Replicate 2 (MKL-1 cells (VP-MCC); [14]): 464.3; Area under the dose-response curve (AUC) MKL-1 Replicate 3 (MKL-1 cells (VP-MCC); [15]): 463.4; Area under the dose-response curve (AUC) MKL-2 Replicate 1 (MKL-2 cells (VP-MCC); [16]): 463.7; Area under the dose-response curve (AUC) MKL-2 Replicate 2 (MKL-2 cells (VP-MCC); [17]): 433.6; Area under the dose-response curve (AUC) MKL-2 Replicate 3 (MKL-2 cells (VP-MCC); [18]): 459.9
CO[C@@H]1C[C@@H](C[C@H]2CC[C@H](C)[C@H]([C@@H](C)C(=O)[O-])O2)O[C@]2(O[C@](C)([C@H]3CC[C@@](C)([C@@H]4O[C@@H]([C@H]5O[C@@](O)(CO)[C@H](C)C[C@@H]5C)C[C@@H]4C)O3)C[C@H]2C)[C@@H]1C.[Na+] [Nigericin sodium salt] | 420.5 | 422.2 | 367.3 | 423.1 | 378.2 | 418.9 | 277.0 | 262.8 | 250.0 | 344.8 | 317.4 | 302.7 | 303.1 | 277.9 | 285.1 | 228.1 | 251.1 | 280.4 | – | – | –
CCCCCCCCC(=O)NCc1ccc(O)c(OC)c1 [Nonivamide] | 513.1 | 478.1 | 523.7 | 453.4 | 445.4 | 466.4 | 479.2 | 501.4 | 453.6 | 544.9 | 499.1 | 488.2 | 491.5 | 481.8 | 491.3 | 520.2 | 501.6 | 494.8 | – | – | –
Fc1ccc2[nH]ccc2c1-c1nc(N2CCOCC2)c2sc(CN3CCN(CC4CC4)CC3)cc2n1 [PI-3065] | – | – | – | – | – | – | – | – | – | – | – | – | – | – | – | – | – | – | – | – | Area under the dose-response curve (AUC) (MCC13 cells (VN-MCC)): 491.4 and 471.7 and 470.9; Area under the dose-response curve (AUC) (MCC26 cells (VN-MCC)): 439.2 and 434.6 and 464.1; Area under the dose-response curve (AUC) (UISO cells (VN-MCC)): 477.0 and 474.8 and 437.8; Area under the dose-response curve (AUC) (WAGA cells (VP-MCC)): 514.3 and 478.8 and 484.1; Area under the dose-response curve (AUC) (MKL-1 cells (VP-MCC)): 492.3 and 479.8 and 465.2; Area under the dose-response curve (AUC) (MKL-2 cells (VP-MCC)): 468.3 and 439.3 and 471.2
C[C@]12CCC(=NOCCN)C[C@@H]1C(=O)C[C@@H]1[C@@H]2CC[C@]2(C)C(=O)CC[C@@H]12 [PST-2744 (Istaroxime)] | – | – | – | – | – | – | – | – | – | – | – | – | – | – | – | – | – | – | – | – | Area under the dose-response curve (AUC) (MCC13 cells (VN-MCC)): 404.5 and 430.7 and 432.5; Area under the dose-response curve (AUC) (MCC26 cells (VN-MCC)): 394.3 and 428.5 and 414.9; Area under the dose-response curve (AUC) (UISO cells (VN-MCC)): 410.4 and 435.6 and 412.5; Area under the dose-response curve (AUC) (WAGA cells (VP-MCC)): 454.8 and 457.0 and 435.6; Area under the dose-response curve (AUC) (MKL-1 cells (VP-MCC)): 437.3 and 438.4 and 450.7; Area under the dose-response curve (AUC) (MKL-2 cells (VP-MCC)): 441.0 and 431.1 and 445.6
Cc1cc(Nc2ncc3c(n2)N(C)C(=O)N(c2cc(NC(=O)c4cccc(C(F)(F)F)c4)ccc2C)C3)n(C)n1 [Pluripotin] | – | – | – | – | – | – | – | – | – | – | – | – | – | – | – | – | – | – | 368.1 | 352.7 | Area under the dose-response curve (AUC) MCC13 Replicate 3 (MCC13 cells (VN-MCC); [3]): 330.6; Area under the dose-response curve (AUC) MCC26 Replicate 1 (MCC26 cells (VN-MCC); [4]): 306.5; Area under the dose-response curve (AUC) MCC26 Replicate 2 (MCC26 cells (VN-MCC); [5]): 289.3; Area under the dose-response curve (AUC) MCC26 Replicate 3 (MCC26 cells (VN-MCC); [6]): 278.9; Area under the dose-response curve (AUC) UISO Replicate 1 (UISO cells (VN-MCC); [7]): 341.8; Area under the dose-response curve (AUC) UISO Replicate 2 (UISO cells (VN-MCC); [8]): 376.4; Area under the dose-response curve (AUC) UISO Replicate 3 (UISO cells (VN-MCC); [9]): 360.3; Area under the dose-response curve (AUC) WAGA Replicate 1 (WAGA cells (VP-MCC); [10]): 419.3; Area under the dose-response curve (AUC) WAGA Replicate 2 (WAGA cells (VP-MCC); [11]): 439.3; Area under the dose-response curve (AUC) WAGA Replicate 3 (WAGA cells (VP-MCC); [12]): 440.2; Area under the dose-response curve (AUC) MKL-1 Replicate 1 (MKL-1 cells (VP-MCC); [13]): 453.5; Area under the dose-response curve (AUC) MKL-1 Replicate 2 (MKL-1 cells (VP-MCC); [14]): 477.1; Area under the dose-response curve (AUC) MKL-1 Replicate 3 (MKL-1 cells (VP-MCC); [15]): 466.2; Area under the dose-response curve (AUC) MKL-2 Replicate 1 (MKL-2 cells (VP-MCC); [16]): 435.4; Area under the dose-response curve (AUC) MKL-2 Replicate 2 (MKL-2 cells (VP-MCC); [17]): 458.3; Area under the dose-response curve (AUC) MKL-2 Replicate 3 (MKL-2 cells (VP-MCC); [18]): 471.4
CO[C@H]1/C=C/O[C@@]2(C)Oc3c(C)c(O)c4c(O)c(c(/C=N/N5CCN(C6CCCC6)CC5)c(O)c4c3C2=O)NC(=O)/C(C)=C\C=C\[C@H](C)[C@H](O)[C@@H](C)[C@@H](O)[C@@H](C)[C@H](OC(C)=O)[C@@H]1C [Rifapentine] | – | – | – | – | – | – | – | – | – | – | – | – | – | – | – | – | – | – | 505.1 | 494.8 | Area under the dose-response curve (AUC) MCC13 Replicate 3 (MCC13 cells (VN-MCC); [3]): 490.8; Area under the dose-response curve (AUC) MCC26 Replicate 1 (MCC26 cells (VN-MCC); [4]): 454.9; Area under the dose-response curve (AUC) MCC26 Replicate 2 (MCC26 cells (VN-MCC); [5]): 422.8; Area under the dose-response curve (AUC) MCC26 Replicate 3 (MCC26 cells (VN-MCC); [6]): 488.5; Area under the dose-response curve (AUC) UISO Replicate 1 (UISO cells (VN-MCC); [7]): 475.3; Area under the dose-response curve (AUC) UISO Replicate 2 (UISO cells (VN-MCC); [8]): 482.1; Area under the dose-response curve (AUC) UISO Replicate 3 (UISO cells (VN-MCC); [9]): 453.0; Area under the dose-response curve (AUC) WAGA Replicate 1 (WAGA cells (VP-MCC); [10]): 525.4; Area under the dose-response curve (AUC) WAGA Replicate 2 (WAGA cells (VP-MCC); [11]): 514.7; Area under the dose-response curve (AUC) WAGA Replicate 3 (WAGA cells (VP-MCC); [12]): 508.3; Area under the dose-response curve (AUC) MKL-1 Replicate 1 (MKL-1 cells (VP-MCC); [13]): 466.1; Area under the dose-response curve (AUC) MKL-1 Replicate 2 (MKL-1 cells (VP-MCC); [14]): 446.1; Area under the dose-response curve (AUC) MKL-1 Replicate 3 (MKL-1 cells (VP-MCC); [15]): 500.1; Area under the dose-response curve (AUC) MKL-2 Replicate 1 (MKL-2 cells (VP-MCC); [16]): 477.3; Area under the dose-response curve (AUC) MKL-2 Replicate 2 (MKL-2 cells (VP-MCC); [17]): 488.3; Area under the dose-response curve (AUC) MKL-2 Replicate 3 (MKL-2 cells (VP-MCC); [18]): 494.1
